Laboratory results as given in ChEMBL document CHEMBL4390703, “Anti-HAV evaluation and molecular docking of newly synthesized 3-benzyl(phenethyl)benzo[g]quinazolines” (Bioorg Med Chem Lett, 2019).

Experiments:
[1] = Antiviral activity against HAV HM175 infected in African green monkey Vero cells assessed as inhibition of virus-induced cytopathic effect measured after 48 hrs by crystal violet staining based assay; assay type: functional, Human hepatitis A virus, Hu/Australia/HM175/1976
[2] = Cytotoxicity against African green monkey Vero cells measured after 48 hrs by crystal violet staining based colorimetric method; assay type: cell-based; details: chlorocebus sabaeus; for MNTC at 48 h: read-out: MNCC
[3] = Selectivity index, ratio of CC50 for African green monkey Vero cells to EC50 for HAV HM175 infected in African green monkey Vero cells; assay type: toxicity; details: for selectivity ratio: Vero cells, read-out: Ratio CC50/EC50; for Ratio CC50/EC50: vero
[4] = Antiviral activity against HAV HM175 infected in African green monkey Vero cells assessed as inhibition of virus-induced cytopathic effect at MNCC measured after 48 hrs by crystal violet staining based assay relative to control; assay type: functional, Human hepatitis A virus, Hu/Australia/HM175/1976
[5] = Inhibition of HAV protease 3C expressed in Escherichia coli BL21(DE3) pLysS using Dabcyl-GLRTQSND (edans) G as substrate preincubated for 3 mins before enzyme addition by fluorescence method; parameters: species or system Hepatovirus A
[6] = tested on: Hepatovirus A; test: Inhibition of HAV protease 3C expressed in Escherichia coli BL21(DE3) pLysS at 100 uM using Dabcyl-GLRTQSND (edans) G as substrate preincubated for 3 mins before enzyme addition by fluorescence method relative to control
[7] = tested on: Hepatovirus A; test: Inhibition of HAV protease 3C expressed in Escherichia coli BL21(DE3) pLysS at 10 uM using Dabcyl-GLRTQSND (edans) G as substrate preincubated for 3 mins before enzyme addition by fluorescence method relative to control
[8] = tested on: Hepatovirus A; test: Inhibition of HAV protease 3C expressed in Escherichia coli BL21(DE3) pLysS at 1 uM using Dabcyl-GLRTQSND (edans) G as substrate preincubated for 3 mins before enzyme addition by fluorescence method relative to control
[9] = tested on: Hepatovirus A; test: Inhibition of HAV protease 3C expressed in Escherichia coli BL21(DE3) pLysS at 0.1 uM using Dabcyl-GLRTQSND (edans) G as substrate preincubated for 3 mins before enzyme addition by fluorescence method relative to control
[10] = Hepatovirus A, Hu/Australia/HM175/1976, Vero, 48 h, read-out: EC50

| SMILES | EC50 [1, 10] [µM] | CC50 at 48 h [2] | MNTC at 48 h [2] [µg/mL] | selectivity ratio [3] | inhibition (INH) [4] [%] | IC50 [5] [µM] | inhibition [6] [%] | inhibition [7] [%] | inhibition [8] [%] | inhibition [9] [%] | EC50 ([1]; vero) | Ratio CC50/EC50 [3] |
| --- | --- | --- | --- | --- | --- | --- | --- | --- | --- | --- | --- | --- |
| N#Cc1ccc(CSc2nc3cc4ccccc4cc3c(=O)n2Cc2ccccc2)cc1 | 152 | 206 µM | 31.2 | 1.35 | 23.82 | – | – | – | – | – | – | – |
| O=c1c2cc3ccccc3cc2[nH]c(=S)n1Cc1ccccc1 | 36.7 | 180 µM | 15.6 | 4.91 | 67.18 | 3.3 to 36.7 | 86 | 64.8 | 37.5 | 9.85 | – | – |
| NC12CC3CC(CC(C3)C1)C2 [AMANTADINE] | 37.3 | 2020 µM | – | 54.1 | – | 37.2 | – | – | – | – | – | – |
| N#Cc1cccc(CSc2nc3cc4ccccc4cc3c(=O)n2CCc2ccccc2)c1 | 130 | 163 µM | 31.2 | 1.25 | 23.49 | – | – | – | – | – | – | – |
| N#Cc1ccc(CSc2nc3cc4ccccc4cc3c(=O)n2CCc2ccccc2)cc1 | – | 86.3 µg/mL | 15.6 | – | 2.88 | – | – | – | – | – | Not Active | Not Active |
| NNc1nc2cc3ccccc3cc2c(=O)n1Cc1ccccc1 | 27.6 | 291 µM | 15.6 | 10.5 | 63.58 | 22.4 to 27.6 | 73.1 | 31.1 | 16.3 | 2.65 | – | – |
| N#Cc1ccccc1CSc1nc2cc3ccccc3cc2c(=O)n1Cc1ccccc1 | 43.7 | 53.5 µM | 7.8 | 1.23 | 39.58 | – | – | – | – | – | – | – |
| O=c1c2cc3ccccc3cc2nc(SCc2ccccc2)n1Cc1ccccc1 | 196 | 419 µM | 62.5 | 2.14 | 42.31 | – | – | – | – | – | – | – |
| O=c1c2cc3ccccc3cc2[nH]c(=S)n1CCc1ccccc1 | 128 | 391 µM | 31.2 | 3.06 | 46.36 | – | – | – | – | – | – | – |
| COc1cccc(CSc2nc3cc4ccccc4cc3c(=O)n2Cc2ccccc2)c1 | 67.8 | 82.7 µM | 7.8 | 1.22 | 24.48 | – | – | – | – | – | – | – |
| N#Cc1cccc(CSc2nc3cc4ccccc4cc3c(=O)n2Cc2ccccc2)c1 | 164 | 380 µM | 62.5 | 2.32 | 41.94 | – | – | – | – | – | – | – |
| COc1cccc(CSc2nc3cc4ccccc4cc3c(=O)n2CCc2ccccc2)c1 | 61.7 | 145 µM | 31.2 | 2.36 | 54.32 | – | – | – | – | – | – | – |
| Cc1cccc(CSc2nc3cc4ccccc4cc3c(=O)n2Cc2ccccc2)c1 | 90.3 | 506 µM | 62.5 | 5.61 | 58.76 | – | – | – | – | – | – | – |
| NNc1nc2cc3ccccc3cc2c(=O)n1CCc1ccccc1 | 18 | 569 µM | 31.2 | 31.6 | 79.81 | 5.92 to 18 | 78.8 | 51.5 | 33 | 13.3 | – | – |
| O=c1c2cc3ccccc3cc2nc(SCc2ccc(Cl)cc2)n1CCc1ccccc1 | 57.9 | 101 µM | 15.6 | 1.75 | 41.26 | – | – | – | – | – | – | – |
| Cc1ccccc1CSc1nc2cc3ccccc3cc2c(=O)n1CCc1ccccc1 | 69.8 | 86.8 µM | 15.6 | 1.24 | 38.09 | – | – | – | – | – | – | – |
| O=c1c2cc3ccccc3cc2nc(SCc2ccc([N+](=O)[O-])cc2)n1Cc1ccccc1 | – | 48.2 µg/mL | 31.2 | – | 0 | – | – | – | – | – | Not Active | Not Active |
| C=CCSc1nc2cc3ccccc3cc2c(=O)n1CCc1ccccc1 | – | 164 µg/mL | 62.5 | – | 3.54 | – | – | – | – | – | Not Active | Not Active |
